Some test systems named below: SK-OV-3 ovarian; MDA-MB-435; SK-MEL-5 melanoma; M14 melanoma; OVCAR-5 ovarian; MALME-3M melanoma; HCT-15 colon; UACC-257 melanoma; A549 NSCLC; SF-295 CNS.
Common to all, as to experiment: DTP human tumour cell line panel, 48 h

Each structure is given as a SMILES string. Several values for one entry are separate records, joined by “and”; a condition that tells them apart may be missing. Identical values can stand only once.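 Cultured in 96-well plates, cells were exposed to test compound for 48 hours across five concentrations. GI50 is the concentration that inhibits growth by half. At the TGI there is no net growth.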

`CCC(=O)c1c(C(F)(F)F)n([O-])c2cc(F)c(F)cc2[n+]1=O`: the GI50 in the assay with SK-OV-3 ovarian is 1.86 µM; with MDA-MB-435, 0.159 µM; in the assay on SK-MEL-5 melanoma, 1.27 µM; in the assay with M14 melanoma, 0.308 µM; with OVCAR-5 ovarian, 1.32 µM; with MALME-3M melanoma, 0.845 µM. For the same compound, the GI50 in the assay on HCT-15 colon is 1.91 µM; in the assay on UACC-257 melanoma, 1.5 µM; in the assay on A549 NSCLC, 2.43 µM; with SF-295 CNS, 0.37 µM. The TGI with SK-OV-3 ovarian is 3.88 µM; with MDA-MB-435, 0.605 µM; with SK-MEL-5 melanoma, 2.74 µM; in the assay with M14 melanoma, 0.951 µM; with OVCAR-5 ovarian it was 2.75 µM; in the assay with MALME-3M melanoma it was 2.24 µM. For the same compound, the TGI in the assay on HCT-15 colon was more than 100 µM; in the assay with UACC-257 melanoma it was 2.98 µM; with A549 NSCLC it was 6.72 µM; in the assay on SF-295 CNS, 1.67 µM.

On to `Cn1ncc(Cl)c1-c1cc(C(=O)N[C@H](CN)Cc2ccc(F)c(F)c2)oc1Cl`, for which the 50% growth inhibitory concentration (GI50) in the assay with SK-OV-3 ovarian was 0.232 µM and 0.259 µM; in the assay on MDA-MB-435, 1.23 µM and 0.889 µM; in the assay with SK-MEL-5 melanoma it was 2.15 µM and 1.48 µM; in the assay with M14 melanoma it was 1.59 µM and 1.49 µM; in the assay with OVCAR-5 ovarian, 0.426 µM and 2.45 µM; with MALME-3M melanoma, 0.36 µM and 0.687 µM. For the same compound, the GI50 is 1.16 µM and 0.662 µM in the assay on HCT-15 colon; 1.64 µM and 1.21 µM with UACC-257 melanoma; 1.57 µM and 1.2 µM in the assay with A549 NSCLC; 0.145 µM and 0.111 µM with SF-295 CNS. Besides, the TGI is 3.75 µM and 5.04 µM with SK-OV-3 ovarian; 10.4 µM and > 6.54 µM in the assay on MDA-MB-435; 5.8 µM and 2.87 µM with SK-MEL-5 melanoma; 5.7 µM and 3.71 µM in the assay on M14 melanoma; 9.12 µM and > 10 µM with OVCAR-5 ovarian; 1.61 µM and 2.59 µM in the assay on MALME-3M melanoma. Further, the TGI with HCT-15 colon was 13.8 µM and > 10 µM; in the assay with UACC-257 melanoma, 7.21 µM and 3.16 µM; in the assay with A549 NSCLC, 15 µM and > 10 µM; with SF-295 CNS, 5.04 µM and 3.27 µM.

In the case of `O=C1/C=C/[C@@H](O)[C@@H]2C[C@@H](O)C[C@H]2/C=C/CCC[C@H](C(F)(F)F)O1`, the GI50 with SK-OV-3 ovarian is 16.4 µM; with MDA-MB-435, 0.36 µM; in the assay with SK-MEL-5 melanoma it was 0.128 µM; in the assay with M14 melanoma, 0.171 µM; in the assay on OVCAR-5 ovarian, 0.933 µM; in the assay with MALME-3M melanoma, 0.0437 µM. Also, the GI50 was 0.32 µM in the assay with HCT-15 colon, 0.053 µM with UACC-257 melanoma, 2.1 µM in the assay with A549 NSCLC and more than 27 µM in the assay on SF-295 CNS. The TGI was more than 100 µM with SK-OV-3 ovarian; more than 44.5 µM in the assay with MDA-MB-435; 0.32 µM in the assay on SK-MEL-5 melanoma; 3.71 µM in the assay with M14 melanoma; 24.7 µM with OVCAR-5 ovarian; 0.292 µM with MALME-3M melanoma. The TGI was 6.98 µM with HCT-15 colon, 1.01 µM with UACC-257 melanoma, more than 100 µM in the assay on A549 NSCLC and more than 100 µM with SF-295 CNS.

`Cc1cc(Cl)nc(N(CCCNc2ccnc3cc(Cl)ccc23)Cc2ccco2)n1`: the GI50 is 2.45 µM in the assay on SK-OV-3 ovarian; 2.31 µM with MDA-MB-435; 1.54 µM with SK-MEL-5 melanoma; 1.88 µM in the assay on M14 melanoma; 3.12 µM with OVCAR-5 ovarian; 2.21 µM with MALME-3M melanoma. Moreover, the GI50 was 1.99 µM in the assay with HCT-15 colon, 2.21 µM with UACC-257 melanoma, 3.28 µM with A549 NSCLC and 1.28 µM in the assay on SF-295 CNS. Also, the concentration for total growth inhibition (TGI) came out at 8.22 µM with SK-OV-3 ovarian; 7.17 µM with MDA-MB-435; 3.01 µM in the assay on SK-MEL-5 melanoma; 4.08 µM in the assay on M14 melanoma; 22.6 µM with OVCAR-5 ovarian; 5.58 µM in the assay with MALME-3M melanoma. In addition, the TGI in the assay on HCT-15 colon came out at 7.61 µM; in the assay with UACC-257 melanoma, 5.76 µM; with A549 NSCLC, 13.9 µM; in the assay with SF-295 CNS, 2.81 µM.

Consider `Cc1ccc(S(=O)(=O)NC(CN)C(=O)O)cc1` (stereo not given), for which the TGI in the assay with SK-OV-3 ovarian, in the assay with MDA-MB-435, in the assay on SK-MEL-5 melanoma, with M14 melanoma, in the assay with OVCAR-5 ovarian and with MALME-3M melanoma was more than 100 µM in each case. Moreover, the TGI in the assay on HCT-15 colon, in the assay with UACC-257 melanoma, in the assay on A549 NSCLC and in the assay on SF-295 CNS was more than 100 µM in each case.

Turning to `CC[n+]1c(/C=C/C=C2\N(C)c3ccccc3C2(C)C)sc2ccccc21`, the GI50 in the assay with SK-OV-3 ovarian was 5.71 µM; in the assay with MDA-MB-435, 3.98 µM; in the assay with SK-MEL-5 melanoma, 3.79 µM; in the assay with M14 melanoma, 4.03 µM; in the assay on OVCAR-5 ovarian it was 4.82 µM; with MALME-3M melanoma it was 4.28 µM. Also, the GI50 in the assay with HCT-15 colon is 4.54 µM; in the assay with UACC-257 melanoma it was 4.64 µM; with A549 NSCLC it was 4.77 µM; in the assay with SF-295 CNS, 3.88 µM. For the same compound, the TGI with SK-OV-3 ovarian worked out at 13.9 µM; in the assay with MDA-MB-435 it was 7.66 µM; in the assay with SK-MEL-5 melanoma, 7.33 µM; in the assay on M14 melanoma, 8.33 µM; in the assay on OVCAR-5 ovarian it was 11.7 µM; with MALME-3M melanoma it was 8.1 µM. The TGI in the assay with HCT-15 colon amounted to 9.67 µM; in the assay on UACC-257 melanoma, 9.02 µM; in the assay on A549 NSCLC, 10 µM; in the assay on SF-295 CNS, 7.55 µM.

As to `CN1CSC(=S)N(Cc2ccccc2)C1`, the GI50 was more than 100 µM with SK-OV-3 ovarian; 3.58 µM in the assay with MDA-MB-435; 13.1 µM in the assay with SK-MEL-5 melanoma; 6.65 µM in the assay on M14 melanoma; 16.5 µM with OVCAR-5 ovarian; 15.4 µM with MALME-3M melanoma. In addition, the GI50 with HCT-15 colon is 4.74 µM; in the assay on UACC-257 melanoma, 13.7 µM; in the assay with A549 NSCLC it was 30.2 µM; in the assay on SF-295 CNS, 32.7 µM. Moreover, the total growth inhibition concentration (TGI) with SK-OV-3 ovarian was more than 100 µM; in the assay on MDA-MB-435, 19.8 µM; with SK-MEL-5 melanoma it was 26.1 µM; with M14 melanoma it was 21.8 µM; in the assay with OVCAR-5 ovarian it was 30.2 µM; in the assay with MALME-3M melanoma it was 37.4 µM. Further, the TGI is 22 µM in the assay with HCT-15 colon, 30.4 µM in the assay on UACC-257 melanoma, more than 100 µM with A549 NSCLC and more than 100 µM in the assay on SF-295 CNS.

In the case of `N#CC1c2ccccc2C=CN1C(=O)N(c1ccccc1)c1ccccc1` (stereo not given), the GI50 in the assay with SK-OV-3 ovarian was 16.5 µM; with MDA-MB-435, 1.74 µM; in the assay with SK-MEL-5 melanoma, 4.03 µM; with M14 melanoma, 2.19 µM; in the assay with OVCAR-5 ovarian, 7.45 µM; in the assay with MALME-3M melanoma it was 1.61 µM. Besides, the GI50 is 2.51 µM in the assay with HCT-15 colon, 2.29 µM in the assay with UACC-257 melanoma, 19.7 µM with A549 NSCLC and 12.6 µM in the assay on SF-295 CNS. For the same compound, the TGI with SK-OV-3 ovarian was found to be 31.3 µM; in the assay with MDA-MB-435, 3.81 µM; with SK-MEL-5 melanoma, 14.8 µM; in the assay on M14 melanoma it was 5.19 µM; in the assay on OVCAR-5 ovarian, 24.3 µM; in the assay with MALME-3M melanoma, 3.55 µM. Besides, the concentration for total growth inhibition (TGI) in the assay on HCT-15 colon came out at 6.93 µM; in the assay on UACC-257 melanoma, 6.2 µM; in the assay on A549 NSCLC, 51.8 µM; in the assay on SF-295 CNS it was 25.2 µM.

One may read the GI50 as the concentration at which growth is held to half of that of the control. A word on the TGI: it is the concentration at which net growth stops.

These data come from PubChem BioAssay (NCI).
